Where a name gives a salt, the structure may show the parent alone.
Experiments:
Assay in all cases: MIC of compounds alone, broth microdilution (CLSI)
Assay type in all cases: cell-based
P. aeruginosa PAE 107051 = settings: Pseudomonas aeruginosa, PAE107051, substance alone, TEM-24, OXA-1
Procedure: (§1) Compounds of the present invention were assessed against genotyped bacterial strains alone or in combination with the β-lactam ceftazidime.

E. cloacae ECL P99 = settings: Enterobacter cloacae, ECLP99, substance alone, AmpC
Procedure: as §1

P. aeruginosa PAE UFR49 = settings: Pseudomonas aeruginosa, PAEUFR49, substance alone, VIM-2
Procedure: as §1

K. pneumoniae KPN 121206 = settings: Klebsiella pneumoniae, KPN121206, substance alone, SHV-1, NDM-1
Procedure: as §1

[1] = system: P. aeruginosa PAE 105250 (AH); settings: Pseudomonas aeruginosa, substance alone, OXA-15
Procedure: as §1

P. aeruginosa PAE UFR92 = settings: Pseudomonas aeruginosa, PAEUFR92, read-out: MIC alone PAE UFR92
Procedure: as §1

E. coli ECO 190317 = settings: Escherichia coli, ECO190317, substance alone, TEM-1, SHV-12, CTX-M-15, OXA-1
Procedure: as §1

E. coli ECO UFR39 = settings: Escherichia coli, ECOUFR39, substance alone, CTX-M-15, NDM-1
Procedure: as §1

| Structure (SMILES) | MIC (P. aeruginosa PAE 107051) [µg/mL] | MIC (E. cloacae ECL P99) [µg/mL] | MIC (P. aeruginosa PAE UFR49) [µg/mL] | MIC (K. pneumoniae KPN 121206) [µg/mL] | MIC [1] [µg/mL] | MIC (P. aeruginosa PAE UFR92) [µg/mL] | MIC (E. coli ECO 190317) [µg/mL] | MIC (E. coli ECO UFR39) [µg/mL] |
| --- | --- | --- | --- | --- | --- | --- | --- | --- |
| CC(=O)Nc1nc2c(s1)C1CN(C2)C(=O)N1OS(=O)(=O)[O-].[Na+] (stereo not drawn) [Example 6] | > 32 | 16 | > 32 | > 32 | > 32 | > 32 | 2 | 4 |
| CN(C)C(=O)[C@@H]1c2c(CCNC(=N)N)csc2C2CN1C(=O)N2OS(=O)(=O)O (stereo in doubt) [Example 11, [(trans-4-(dimethylcarbamoyl)-3-(2-quanidinoethyl)-5,8-methano-6-oxo-4,8-dihydrothieno[2,3-e][1,3]diazepin-7-yl] hydrogen sulfate] | 4 | 16 | 4 | > 32 | 4 | 8 | 4 | > 32 |
| N=C(N)NCCNC(=O)c1nc2c(s1)C1CN(C2)C(=O)N1OS(=O)(=O)O (stereo not drawn) [Example 3, [2-(2-quanidinoethylcarbamoyl)-5,8-methano-6-oxo-4,8-dihydrothiazolo[4,5-e][1,3]diazepin-7-yl]sulfonic acid] | 4 | 0.5 | 16 | 16 | 8 | 8 | 0.5 | 2 |
| CN(C)C(=O)[C@H]1c2nc(C(=O)NCCNC(=N)N)sc2[C@@H]2CN1C(=O)N2OS(=O)(=O)O (relative stereo) [Example 9, [trans-4-(dimethylcarbamoyl)-2-(2-guanidinoethylcarbamoyl)-5,8-methano-6-oxo-4,8-dihydrothiazolo[4,5-e][1,3]diazepin-7-yl] hydrogen sulfate] | 8 | > 32 | 4 | > 32 | 8 | 32 | 32 | > 32 |
| NCc1nc2c(s1)C1CN(C2)C(=O)N1OS(=O)(=O)O (stereo not drawn) [Example 4] | > 32 | 1 | 32 | 32 | 32 | 32 | 0.25 | 0.25 |
| CN(C)C(=O)[C@@H]1c2c(CNC(=N)N)csc2[C@H]2CN1C(=O)N2OS(=O)(=O)O.O=C(O)C(F)(F)F (relative stereo) [Example 10, [N-[[trans-4-(dimethylcarbamoyl)-5,8-methano-6-oxo-7-sulfooxy-4,8-dihydrothieno[2,3-e][1,3]diazepin-3-yl]methyl]carbamimidoyl]ammonium 2,2,2-trifluoroacetate] | 4 | 16 | 8 | 32 | 8 | 8 | 2 | 32 |
| N=C(N)NCc1nc2c(s1)C1CN(C2)C(=O)N1OS(=O)(=O)O (stereo not drawn) [Example 2] | 2 | 1 | 4 | > 32 | 4 | 4 | 0.063 | 0.125 |
| CCOC(=O)[C@@H]1c2c(-c3ccc(F)cc3)csc2[C@@H]2CN1C(=O)N2OS(=O)(=O)[O-].[Na+] [Example 8] | > 32 | > 32 | > 32 | > 32 | > 32 | > 32 | > 32 | > 32 |
| O=C(Nc1nc2c(s1)C1CN(C2)C(=O)N1OS(=O)(=O)[O-])OCc1ccccc1.[Na+] (stereo not drawn) [Example 5] | > 32 | > 32 | > 32 | > 32 | > 32 | > 32 | > 32 | > 32 |
| O=C1N2Cc3ccsc3C(C2)N1OS(=O)(=O)[O-].[Na+] (stereo not drawn) [Example 7] | > 32 | 8 | > 32 | > 32 | > 32 | > 32 | 2 | 4 |
| CC(C)(O/N=C(\C(=O)N[C@@H]1C(=O)N2C(C(=O)[O-])=C(C[n+]3ccccc3)CS[C@H]12)c1csc(N)n1)C(=O)O [CAZ, ceftazidime] | 256 | 128 | 64 | > 256 | 256 | 32 | 128 | > 256 |
| NCCNC(=O)c1nc2c(s1)C1CN(C2)C(=O)N1S(=O)(=O)O (stereo not drawn) [Example 1, [2-(2-aminoethylcarbamoyl)-5,8-methano-6-oxo-4,8-dihydrothiazolo[4,5-e][1,3]diazepin-7-yl]sulfonic acid] | 8 | 2 | 16 | 32 | 8 | 8 | 0.25 | 0.5 |
